From PubChem BioAssay (NCI)
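Step 1: Grow cells in 96-well plates. Step 2: Expose to compound for 48 hours at 5 concentrations. Step 3: Interpolate endpoints linearly; if unreached, use highest concentration. TGI: total growth inhibition.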

Tests used:
Assay in all cases: NCI tumour cell line growth inhibition, 48 h
UACC-257 melanoma = test system: UACC-257 melanoma
MCF7 breast = test system: MCF7 breast
NCI-H23 lung = test system: NCI-H23 lung
OVCAR-3 ovarian = test system: OVCAR-3 ovarian
SNB-75 CNS = test system: SNB-75 CNS
HT29 colon = test system: HT29 colon
HOP-18 NSCLC = test system: HOP-18 NSCLC
SK-MEL-28 melanoma = test system: SK-MEL-28 melanoma
CAKI-1 renal = test system: CAKI-1 renal
OVCAR-4 ovarian = test system: OVCAR-4 ovarian
SK-OV-3 ovarian = test system: SK-OV-3 ovarian
NCI-H226 lung = test system: NCI-H226 lung
NCI/ADR-RES ovarian = test system: NCI/ADR-RES ovarian
K-562 leukemia = test system: K-562 leukemia
SNB-19 CNS = test system: SNB-19 CNS
CCRF-CEM leukemia = test system: CCRF-CEM leukemia
LOX IMVI melanoma = test system: LOX IMVI melanoma
A549 NSCLC = test system: A549 NSCLC
SK-MEL-2 melanoma = test system: SK-MEL-2 melanoma
P388 leukemia = test system: P388 leukemia
SF-268 CNS = test system: SF-268 CNS
OVCAR-5 ovarian = test system: OVCAR-5 ovarian
P388/ADR leukemia = test system: P388/ADR leukemia
IGROV1 ovarian = test system: IGROV1 ovarian
DLD-1 colon = test system: DLD-1 colon
M19-MEL melanoma = test system: M19-MEL melanoma
SNB-78 CNS = test system: SNB-78 CNS
NCI-H522 lung = test system: NCI-H522 lung
COLO 205 colon = test system: COLO 205 colon
UACC-62 melanoma = test system: UACC-62 melanoma
HCT-116 colon = test system: HCT-116 colon
U251 CNS = test system: U251 CNS
EKVX NSCLC = test system: EKVX NSCLC
OVCAR-8 ovarian = test system: OVCAR-8 ovarian
XF 498 CNS = test system: XF 498 CNS
SF-295 CNS = test system: SF-295 CNS
SN12C renal = test system: SN12C renal
HL-60(TB) leukemia = test system: HL-60(TB) leukemia
MALME-3M melanoma = test system: MALME-3M melanoma
SN12K1 renal = test system: SN12K1 renal
HOP-62 NSCLC = test system: HOP-62 NSCLC
MOLT-4 leukemia = test system: MOLT-4 leukemia
HCT-15 colon = test system: HCT-15 colon
SW-620 colon = test system: SW-620 colon
SK-MEL-5 melanoma = test system: SK-MEL-5 melanoma
HCC-2998 colon = test system: HCC-2998 colon
KM12 colon = test system: KM12 colon
RPMI-8226 leukemia = test system: RPMI-8226 leukemia
DMS 114 small cell lung = test system: DMS 114 small cell lung
DMS 273 small cell lung = test system: DMS 273 small cell lung
HOP-92 NSCLC = test system: HOP-92 NSCLC
UO-31 renal = test system: UO-31 renal
NCI-H460 lung = test system: NCI-H460 lung
SF-539 CNS = test system: SF-539 CNS
RXF 393 renal = test system: RXF 393 renal
KM20L2 colon = test system: KM20L2 colon
A498 renal = test system: A498 renal

SMILES: O=C(NC(Cc1ccc(I)cc1)C(=O)O)c1ccc(I)cc1 (configuration not stated)
- TGI (UACC-257 melanoma): > 100 µM
- TGI (MCF7 breast): > 100 µM
- TGI (NCI-H23 lung): > 100 µM
- TGI (OVCAR-3 ovarian): 97.4 µM
- TGI (SNB-75 CNS): > 100 µM
- TGI (HT29 colon): > 100 µM
- TGI (HOP-18 NSCLC): > 100 µM
- TGI (SK-MEL-28 melanoma): > 100 µM
- TGI (CAKI-1 renal): > 100 µM
- TGI (OVCAR-4 ovarian): > 100 µM
- TGI (SK-OV-3 ovarian): > 100 µM
- TGI (NCI-H226 lung): > 100 µM
- TGI (NCI/ADR-RES ovarian): > 100 µM
- TGI (K-562 leukemia): > 100 µM
- TGI (SNB-19 CNS): > 100 µM
- TGI (CCRF-CEM leukemia): > 100 µM
- TGI (LOX IMVI melanoma): > 100 µM
- TGI (A549 NSCLC): > 100 µM
- TGI (SK-MEL-2 melanoma): > 100 µM
- TGI (P388 leukemia): > 100 µM
- TGI (SF-268 CNS): > 100 µM
- TGI (OVCAR-5 ovarian): > 100 µM
- TGI (P388/ADR leukemia): > 100 µM
- TGI (IGROV1 ovarian): > 47.6 µM
- TGI (DLD-1 colon): > 100 µM
- TGI (M19-MEL melanoma): > 100 µM
- TGI (SNB-78 CNS): > 100 µM
- TGI (NCI-H522 lung): > 100 µM
- TGI (COLO 205 colon): > 100 µM
- TGI (UACC-62 melanoma): > 82.1 µM
- TGI (HCT-116 colon): > 100 µM
- TGI (U251 CNS): > 100 µM
- TGI (EKVX NSCLC): > 83.6 µM
- TGI (OVCAR-8 ovarian): > 100 µM
- TGI (XF 498 CNS): > 100 µM
- TGI (SF-295 CNS): > 100 µM
- TGI (SN12C renal): > 100 µM
- TGI (HL-60(TB) leukemia): > 100 µM
- TGI (MALME-3M melanoma): > 100 µM
- TGI (SN12K1 renal): > 100 µM
- TGI (HOP-62 NSCLC): > 100 µM
- TGI (MOLT-4 leukemia): > 100 µM
- TGI (HCT-15 colon): > 100 µM
- TGI (SW-620 colon): > 37.3 µM
- TGI (SK-MEL-5 melanoma): > 100 µM
- TGI (HCC-2998 colon): > 77.3 µM
- TGI (KM12 colon): > 100 µM
- TGI (RPMI-8226 leukemia): > 100 µM
- TGI (DMS 114 small cell lung): > 100 µM
- TGI (DMS 273 small cell lung): > 100 µM
- TGI (HOP-92 NSCLC): > 100 µM
- TGI (UO-31 renal): > 36.6 µM
- TGI (NCI-H460 lung): > 100 µM
- TGI (SF-539 CNS): > 100 µM
- TGI (RXF 393 renal): > 100 µM
- TGI (KM20L2 colon): > 100 µM
- TGI (A498 renal): > 100 µM
